According to PMC12340639 (ACS Pharmacology & Translational Science, 2025):

System: ER-positive MCF7 human breast cancer cells
Assay: MCF7 cell proliferation assay
Format: cell-based
Settings: MCF7, 120 h, read-out: Cell Proliferation EC50

- EC50: 3.2 pM
SMILES: C[C@]12CC[C@@H]3c4ccc(O)cc4CC[C@H]3[C@@H]1CC[C@@H]2O [E2, 17β-estradiol]
